Assay results: PMC7504721, “Targeting the Initiator Protease of the Classical Pathway of Complement Using Fragment-Based Drug Discovery” (Molecules, 2020)

Tested on: lectin pathway
Assay: Lectin pathway-specific ELISA (mannan, C1q-depleted serum, C4b detection)
Format: biochemical, human
Conditions: single dose 500 µM, triplicate, 2% C1q-depleted serum
Description: Figure 5 Selectivity and mechanistic analysis of CMP-1611 and CMP-1696. (A) Chemical structure of CMP-1611. (B) Chemical structure of CMP-1696. (C) Dose-dependent inhibition by CMP-1611 and CMP-1696 in a classical pathway-specific ELISA. Data were fit with GraphPad Prism using non-linear regression with a log(inhibitor) vs. response model. […] (D) Complement pathway selectivity of CMP-1611 and CMP-1696. Compounds were assessed for their ability to inhibit activation of complement via the lectin and alternative pathways using single doses of 500 µM compound in triplicate. To ensure only lectin pathway activation, 2% (v/v) C1q-depleted serum (CompTech) was used and mannan was used as the activator. To match serum sources and amounts for this assay, the classical pathway assays were repeated here using serum from CompTech at 2% (v/v) final concentration. Alternative pathway activation assays were performed using 20% (v/v) serum (CompTech), alternative pathway buffers, and C3b detection (see Methods and Materials for details). […]
To carry out classical pathway ELISA-based inhibition assays, IgM was dissolved in coating buffer (100 mM Na2CO3/NaHCO3, pH 9.6) to a final concentration of 3 µg/mL and was dispensed into 96-well plates at 100 µL per well. […] The reaction was stopped with 50 µL of 0.16 M sulfuric acid, and the plate was read at 450 nm using an EnSight multimode plate reader (Perkin-Elmer). […]

How did the “inhibition of lectin pathway activation” value turn out when `CN(C)c1cc(N2CCCC(N)C2)ncn1` (centres unmarked) [CMP-1611] was run?
The value was “no effect”.

How did the “inhibition of lectin pathway activation” value turn out when `COCc1nc(-c2ccc(OC3CNC3)cc2)no1` [CMP-1696] was run?
The value was “blocked”.
